Experimental data taken from ChEMBL document CHEMBL1201862, “PubChem BioAssay data set” (2004).
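In this assay, cells in 96-well plates receive the compound at five concentrations for 48 hours. Endpoints are linearly interpolated between the surrounding concentrations. At the GI50, growth is halved.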 Active and inactive are the calls of the source. Cut-off read from the data, not from the text of the source: active = GI50 up to about 1.1 µM and inactive = higher.

Experiments:
Test in all cases: inhibition of tumour cell growth, NCI panel, 48 h
NCI-H460 = tested on: NCI-H460
HCT-15 = tested on: HCT-15
TK-10 = tested on: TK-10
DU-145 = tested on: DU-145
LOX IMVI = tested on: LOX IMVI
U-251 = tested on: U-251
HL-60 = tested on: HL-60
NCI-H522 = tested on: NCI-H522
NCI-H226 = tested on: NCI-H226
EKVX = tested on: EKVX
SK-MEL-28 = tested on: SK-MEL-28
IGROV-1 = tested on: IGROV-1
SF-268 = tested on: SF-268
MDA-N = tested on: MDA-N
COLO 205 = tested on: COLO 205
ACHN = tested on: ACHN
KM12 = tested on: KM12
SK-OV-3 = tested on: SK-OV-3
SN12C = tested on: SN12C
CCRF-CEM = tested on: CCRF-CEM

Row | Structure (SMILES) | GI50 (NCI-H460) | GI50 (HCT-15) | GI50 (TK-10) | GI50 (DU-145) | GI50 (LOX IMVI) | GI50 (U-251) | GI50 (HL-60) | GI50 (NCI-H522) | GI50 (NCI-H226) | GI50 (EKVX) | GI50 (SK-MEL-28) | GI50 (IGROV-1) | GI50 (SF-268) | GI50 (MDA-N) | GI50 (COLO 205) | GI50 (ACHN) | GI50 (KM12) | GI50 (SK-OV-3) | GI50 (SN12C) | GI50 (CCRF-CEM)
1 | Cc1cc2c(cc1C)[n+]([O-])c(N1CCN(c3ccc([N+](=O)[O-])cc3)CC1)c(C#N)[n+]2[O-] | 20.3 µM (inactive) | 85.3 µM | 15 µM (inactive) | 32.8 µM (inactive) | 25.2 µM (inactive) | 17 µM (inactive) | > 100 µM (inactive) | 26.2 µM (inactive) | 35.6 µM (inactive) | 26 µM (inactive) | > 100 µM (inactive) | 25.3 µM (inactive) | 41.7 µM (inactive) | > 100 µM (inactive) | > 100 µM (inactive) | 15.3 µM (inactive) | > 100 µM (inactive) | 14.2 µM (inactive) | 35.3 µM (inactive) | > 100 µM (inactive)
2 | CCOC(=O)c1c(Sc2ccc([N+](=O)[O-])cc2[N+](=O)[O-])nc2c3ccccc3ccn12 | > 55.7 µM (inactive) | > 100 µM | > 55.7 µM (inactive) | > 100 µM (inactive) | > 100 µM (inactive) | 31.8 µM (inactive) | 11.5 µM (inactive) | 41.7 µM (inactive) | 83.6 µM (inactive) | > 100 µM (inactive) | > 100 µM (inactive) | > 31.6 µM (inactive) | 28.6 µM (inactive) | > 100 µM (inactive) | > 100 µM (inactive) | 19.3 µM (inactive) | > 100 µM (inactive) | 15.9 µM (inactive) | 99.1 µM (inactive) | 40.7 µM (inactive)
3 | COC1=C(Br)C(O)C2(C=C1Br)CC(C(=O)NCCCCNC(=O)C1=NOC3(C=C(Br)C(OC)=C(Br)C3O)C1)=NO2 (centres undefined) | 26.4 µM (inactive) | 49 µM | 65.3 µM (inactive) | 31.6 µM (inactive) | 17 µM (inactive) | 25.8 µM (inactive) | 20.6 µM (inactive) | 11.3 µM (inactive) | 4.73 µM (inactive) | – | 25.5 µM (inactive) | 11.7 µM (inactive) | 13.5 µM (inactive) | 16.7 µM (inactive) | 15.8 µM (inactive) | 26.3 µM (inactive) | 12.4 µM (inactive) | 27.2 µM (inactive) | 25.6 µM (inactive) | 10.1 µM (inactive)
4 | O=C(Nc1ccccc1)n1[nH]c(=O)n(-c2ccccc2)c1=O | > 100 µM (inactive) | > 100 µM | > 100 µM (inactive) | > 100 µM (inactive) | > 100 µM (inactive) | > 100 µM (inactive) | > 100 µM (inactive) | > 100 µM (inactive) | > 100 µM (inactive) | – | > 100 µM (inactive) | – | > 100 µM (inactive) | > 100 µM (inactive) | > 100 µM (inactive) | > 100 µM (inactive) | > 100 µM (inactive) | > 100 µM (inactive) | > 100 µM (inactive) | > 100 µM (inactive)
5 | Oc1ccc2ccccc2c1/N=N/c1ccc(Br)cc1 | – | > 100 µM | 59.6 µM (inactive) | > 100 µM (inactive) | > 100 µM (inactive) | > 100 µM (inactive) | > 100 µM (inactive) | > 100 µM (inactive) | 66.7 µM (inactive) | 36.2 µM (inactive) | > 100 µM (inactive) | 36.1 µM (inactive) | 23.6 µM (inactive) | > 100 µM (inactive) | > 100 µM (inactive) | 89.1 µM (inactive) | 77.6 µM (inactive) | 17.4 µM (inactive) | > 100 µM (inactive) | > 100 µM (inactive)
6 | COc1cc(S(=O)(=O)Nc2nc(-c3ccc(N4C(=O)/C(=C/C=C/c5ccccc5)N=C4c4ccccc4)cc3)cs2)ccc1Cl | > 100 µM (inactive) | > 100 µM | > 100 µM (inactive) | > 100 µM (inactive) | 53.5 µM (inactive) | 53.1 µM (inactive) | 60.7 µM (inactive) | 48.2 µM (inactive) | > 100 µM (inactive) | – | 81.3 µM (inactive) | 37 µM (inactive) | 28.9 µM (inactive) | > 100 µM (inactive) | > 100 µM (inactive) | > 100 µM (inactive) | > 100 µM (inactive) | > 100 µM (inactive) | > 100 µM (inactive) | 58.7 µM (inactive)
7 | CCOC(=O)c1c(O)nc2cccc3c2c1-c1cccnc1S3 | 24.4 µM (inactive) | 35.8 µM | 44.7 µM (inactive) | 44.6 µM (inactive) | 25.1 µM (inactive) | 21.3 µM (inactive) | 20.3 µM (inactive) | 25.8 µM (inactive) | 19.9 µM (inactive) | 30.3 µM (inactive) | 30.8 µM (inactive) | 16.9 µM (inactive) | 28.8 µM (inactive) | 39 µM (inactive) | 35.9 µM (inactive) | 28.8 µM (inactive) | – | 30.9 µM (inactive) | 39.9 µM (inactive) | 24 µM (inactive)
